Data: PMC8348200, “Selective Antifungal Activity and Fungal Biofilm Inhibition of Tryptophan Center Symmetrical Short Peptide” (International Journal of Molecular Sciences, 2021)
In brackets after ≈: the same amount, converted by molar mass. Like-named read-outs stand apart in the source and are kept apart here.

Tests used:
Assay in all cases: microbe, parasite or virus in culture
L. rhamnosus 1.0911 = assay type: cell-based, Lactobacillus rhamnosus; settings: 37 °C 24 h, peptides 0.5-128 μM, lowest concentration inhibiting 95% of growth, three independent experiments, read-out: MICs, L. rhamnosus 1.0911
Procedure: (§1) The peptide antimicrobial activity was determined according to the Clinical and Laboratory Standards Institute method, with modifications. Bacteria concentration was measured by ultraviolet spectrophotometer, and fungi concentration was confirmed by McMillan’s turbidimetric method, which compared the fungi solution with the standard McFarland tube in front of the horizontal line on the paper with the naked eye. Because the light has different refract in different liquids. The standard solution is composed of sulfuric acid and barium chloride, which is equivalent to 1*10^8 CFU fungi. After cultivation, the growth of fungi and bacteria was measured by TECAN automatic enzyme label instrument. Briefly, bacterial cells were cultured in MHB until logarithmic phase, yeast colonies cultured in Yeast Peptone Dextrose Agar (YPDA) were picked and diluted in RPMI 1640 growth medium buffered with morpholine propane sulfonic acid (MOPS), and then 50 μL of bacterial or fungi cell solution (0.5–1 × 10^4 CFU/mL) was added to each well of sterile 96-well plates. Each well contained 50 μL of AMPs dissolved in BSA; the final concentrations of the peptides ranged from 0.5 to 128 μM. The lowest concentration of peptide with no microbial growth being observed were measured after incubation at 37 °C for 24 h for bacteria or at 28 °C for 48 h for fungi. Broth with microbial cells and un-inoculated broth were used as positive control and negative controls, respectively.

L. rhamnosus 1.0385 = assay type: cell-based, Lactobacillus rhamnosus; settings: 37 °C 24 h, peptides 0.5-128 μM, lowest concentration inhibiting 95% of growth, three independent experiments, read-out: MICs, L. rhamnosus 1.0385
Procedure: as §1

S. aureus 29213 = assay type: cell-based, Staphylococcus aureus; settings: MHB, 37 °C 24 h, peptides 0.5-128 μM, lowest concentration inhibiting 95% of growth, three independent experiments, read-out: MICs, S. aureus 29213
Procedure: as §1

S. thermophilus YM-C = assay type: cell-based, Streptococcus thermophiles; settings: 37 °C 24 h, peptides 0.5-128 μM, lowest concentration inhibiting 95% of growth, three independent experiments, read-out: MICs, S. thermophilus YM-C
Procedure: as §1

[1] = test system: C. albicans Isolated from Alveolar Fluid; assay type: cell-based, Candida albicans; settings: RPMI 1640 buffered with MOPS, 28 °C 48 h, 0.5-128 μM, read-out: MICs, C. albicans Isolated from Alveolar Fluid
Procedure: as §1

C. albicans cgmcc 2.2086 = assay type: cell-based, Candida albicans; settings: RPMI 1640 buffered with MOPS, 28 °C 48 h, 0.5-128 μM, read-out: MICs, C. albicans cgmcc 2.2086
Procedure: as §1

C. albicans SP3902 = assay type: cell-based, Candida albicans; settings: clinical isolate, RPMI 1640 buffered with MOPS, 28 °C 48 h, 0.5-128 μM, read-out: MICs, C. albicans SP3902
Procedure: as §1

C. albicans SP3903 = assay type: cell-based, Candida albicans; settings: clinical isolate, RPMI 1640 buffered with MOPS, 28 °C 48 h, 0.5-128 μM, read-out: MICs, C. albicans SP3903
Procedure: as §1

C. albicans SP3937 = assay type: cell-based, Candida albicans; settings: clinical isolate, RPMI 1640 buffered with MOPS, 28 °C 48 h, 0.5-128 μM, read-out: MICs, C. albicans SP3937
Procedure: as §1

C.albicans cgmcc 2.2086 = assay type: cell-based, Candida albicans; settings: C.albicans cgmcc 2.2086
Procedure: as §1, with “The lowest concentration of peptide with no microbial growth being observed were measured after incubation at 37 °C for 24 h for bacteria or at 28 °C for 48 h for fungi.” left out
The salt and acid sensitivities of the peptides were measured using with modified method to test MIC values; tested peptides were incubated in the presence of different final concentrations of physiological salts. The subsequent steps were consistent with the MIC determination protocol.

[2] = test system: Fluconazole-resistant C. albicans 56214; settings: for MIC: Candida albicans, 48 h, read-out: MICs, C. albicans 56214
Procedure: as §1, with “Bacteria concentration was measured by ultraviolet spectrophotometer, and fungi concentration was confirmed by McMillan’s turbidimetric method, which compared the fungi solution with the standard McFarland tube in front of the horizontal line on the paper with the naked eye.” left out, “The lowest concentration of peptide with no microbial growth being observed were measured after incubation at 37 °C for 24 h for bacteria or at 28 °C for 48 h for fungi.” left out

[3] = Lacticaseibacillus rhamnosus, 1.0911
[4] = Lacticaseibacillus rhamnosus, 1.0385
[5] = Candida albicans, CGMCC2, no added salt, read-out: MIC, Control
[6] = Candida albicans, CGMCC2, pH = 6 (acidic conditions), read-out: MIC in acid environment, pH = 6
[7] = Candida albicans, CGMCC2, physiological concentration of FeCl3, read-out: MIC in the presence of FeCl3
[8] = Candida albicans, CGMCC2, physiological concentration of KCl, read-out: MIC in the presence of KCl
[9] = Candida albicans, CGMCC2, physiological concentration of MgCl2, read-out: MIC in the presence of MgCl2
[10] = Candida albicans, CGMCC2, physiological concentration of NH4Cl, read-out: MIC in the presence of NH4Cl
[11] = Candida albicans, CGMCC2, physiological concentration of NaCl (Na+), read-out: MIC in the presence of NaCl
[12] = Candida albicans, CGMCC2, physiological concentration of ZnCl2, read-out: MIC in the presence of ZnCl2

Compound	MIC (L. rhamnosus 1.0911; [3]) [µM]	MIC (L. rhamnosus 1.0385; [4]) [µM]	MIC (S. aureus 29213; Staphylococcus aureus, 29213) [µM]	MIC (S. thermophilus YM-C; Streptococcus thermophilus) [µM]	MIC ([1]; Candida albicans) [µM]	MIC (C. albicans cgmcc 2.2086; Candida albicans, CGMCC2) [µM]	MIC (C. albicans SP3902; Candida albicans, SP3902) [µM]	MIC (C. albicans SP3903; Candida albicans, SP3903) [µM]	MIC (C. albicans SP3937; Candida albicans, SP3937) [µM]	MIC (C.albicans cgmcc 2.2086; [5]) [µM]	MIC (C.albicans cgmcc 2.2086; [6]) [µM]	MIC (C.albicans cgmcc 2.2086; [7]) [µM]	MIC (C.albicans cgmcc 2.2086; [8]) [µM]	MIC (C.albicans cgmcc 2.2086; [9]) [µM]	MIC (C.albicans cgmcc 2.2086; [10]) [µM]	MIC (C.albicans cgmcc 2.2086; [11]) [µM]	MIC (C.albicans cgmcc 2.2086; [12]) [µM]	MIC [2] [µM]	other results
C[C@@H]1[C@H](O)[C@@H](C)/C=C/C=C/C=C/C=C/C=C/C=C/C=C/[C@H](O[C@@H]2O[C@H](C)[C@@H](O)[C@H](N)[C@@H]2O)C[C@@H]2O[C@](O)(C[C@@H](O)C[C@@H](O)[C@H](O)CC[C@@H](O)C[C@@H](O)CC(=O)O[C@H]1C)C[C@H](O)[C@H]2C(=O)O [Amphotericin B, reference compound]	> 128	> 128	> 128	> 128	1 (≈ 0.924 µg/mL)	1 (≈ 0.924 µg/mL)	0.5 (≈ 0.462 µg/mL)	0.5 (≈ 0.462 µg/mL)	0.5 (≈ 0.462 µg/mL)	1	1 (≈ 0.924 µg/mL)	1	1	1	1	2	1	1 (≈ 0.924 µg/mL)	–
CC[C@H](C)[C@H](NC(=O)CN)C(=O)NCC(=O)N[C@@H](C)C(=O)N[C@H](C(=O)N[C@@H](CC(C)C)C(=O)N[C@@H](CCCCN)C(=O)N[C@H](C(=O)N[C@@H](CC(C)C)C(=O)N[C@H](C(=O)N[C@H](C(=O)NCC(=O)N[C@@H](CC(C)C)C(=O)N1CCC[C@H]1C(=O)N[C@@H](C)C(=O)N[C@@H](CC(C)C)C(=O)N[C@H](C(=O)N[C@@H](CO)C(=O)N[C@@H](Cc1c[nH]c2ccccc12)C(=O)N[C@H](C(=O)N[C@@H](CCCCN)C(=O)N[C@@H](CCCNC(=N)N)C(=O)N[C@@H](CCCCN)C(=O)N[C@@H](CCCNC(=N)N)C(=O)N[C@@H](CCC(N)=O)C(=O)N[C@@H](CCC(N)=O)C(N)=O)[C@@H](C)CC)[C@@H](C)CC)[C@@H](C)O)[C@@H](C)O)C(C)C)C(C)C [Melittin, reference compound]	–	–	–	–	–	–	–	–	–	–	–	–	–	–	–	–	–	–	MIC (L. rhamnosus 1.0911): >128 µM; MIC (L. rhamnosus 1.0385): >128 µM; MIC (S. aureus 29213): 2 µM (≈ 5.69 µg/mL); MIC (S. thermophilus YM-C): >128 µM; MIC [1]: 4 µM (≈ 11.4 µg/mL); MIC (C. albicans cgmcc 2.2086): 4 µM (≈ 11.4 µg/mL); MIC (C. albicans SP3902): 4 µM (≈ 11.4 µg/mL); MIC (C. albicans SP3903): 2 µM (≈ 5.69 µg/mL); MIC (C. albicans SP3937): 4 µM (≈ 11.4 µg/mL); MIC (C.albicans cgmcc 2.2086; no added salt, read-out: MIC, Control): 4 µM; MIC (C.albicans cgmcc 2.2086; pH = 6 (acidic conditions), read-out: MIC in acid environment, pH = 6): 4 µM (≈ 11.4 µg/mL); MIC (C.albicans cgmcc 2.2086; physiological concentration of FeCl3, read-out: MIC in the presence of FeCl3): 4 µM; MIC (C.albicans cgmcc 2.2086; physiological concentration of KCl, read-out: MIC in the presence of KCl): 4 µM; MIC (C.albicans cgmcc 2.2086; physiological concentration of MgCl2, read-out: MIC in the presence of MgCl2): 8 µM; MIC (C.albicans cgmcc 2.2086; physiological concentration of NaCl (Na+), read-out: MIC in the presence of NaCl): 8 µM; MIC (C.albicans cgmcc 2.2086; physiological concentration of ZnCl2, read-out: MIC in the presence of ZnCl2): 4 µM; MICs, C. albicans 56214 ([2]; fluconazole-resistant strain, RPMI 1640 buffered with MOPS, 28 °C 48 h, 0.5-128 μM): 2 µM
OC(Cn1cncn1)(Cn1cncn1)c1ccc(F)cc1F [Fluconazole, reference compound]	> 128	> 128	> 128	> 128	2 (≈ 0.613 µg/mL)	1 (≈ 0.306 µg/mL)	16 (≈ 4.9 µg/mL)	32 (≈ 9.8 µg/mL)	16 (≈ 4.9 µg/mL)	1	1 (≈ 0.306 µg/mL)	1	1	1	1	2	1	> 128	–
